Measured values reported in patent publication US11714087B2, “Treatment of necroptosis” (priority 2018, dated 2023).

Key:
Assay type in all cases: in vivo, Sprague-Dawley rats
Caspase 8 = assay: Liver Caspase 8 activity (Caspase-Glo) in rodent ACLF model; conditions: BDL+NEC-1+LPS group; IQR 313.5-414.3; p=0.020 compared to BDL
Experimental: (§1) The animal model of ACLF utilised in this study was developed using a well-characterized rodent model of advanced fibrosis induced by bile duct ligation (BDL) with ACLF induced in this model by infusion of LPS. Bile duct ligation, housing, and care of the animals were performed as previously described. Four groups of adult male Sprague-Dawley rats were studied (n=4-8 in each group). The animals were studied 4 weeks after either sham-operation or BDL. The animals in each group were terminated 3-h after administration of LPS (Klebsiella pneumoniae) (0.3 mg/kg/hr, intravenously) or saline under terminal anaesthesia.
(§2) 4. BDL animals administered LPS and Nec-1; This group of BDL rats received an i.p. injection of 3.3 mg/kg Nec-1 followed, by an i.p injection of LPS, 3 hr later.
(§3) Liver Caspase 3/7 and 8 activities were measured using Caspase-Glo assay kits (Promega). Briefly, cytosolic extracts from liver tissue were obtained by homogenisation in hypotonic extraction buffer [10 mM HEPES, 0.5% Triton X-100, 2 mM DTT, protease inhibitor cocktail (Sigma)] using a TissueLyser LT sytem (Qiagen, UK). […] After quantification using BCA™ Protein Assay Kit (Pierce, UK), protein concentrations of supernatant were adjusted to 1 mg/ml with extraction buffer and stored at −80° C. […] Luminescence was measured using a plate-reading luminometer (FLUOstar Omega, BMG Labtech, UK).

RIPK1 = target: T1, RIPK1 (Rattus norvegicus, UniProt D3ZYL0); assay: Rodent ACLF model (BDL+LPS rats): RIPK1 immunostaining of liver tissue; conditions: 3.3 mg/kg Nec-1 i.p. 3 hr before LPS, vs BDL+Vehicle+LPS, p=0.009
T1 construct: Representative images of liver tissue of sham, BDL, BDL+LPS and BDL+NEC-1+LPS stained for RIPK1; from tissue; host or cells: rat liver (BDL+LPS ACLF model)
T1 sequence (D3ZYL0 1-658): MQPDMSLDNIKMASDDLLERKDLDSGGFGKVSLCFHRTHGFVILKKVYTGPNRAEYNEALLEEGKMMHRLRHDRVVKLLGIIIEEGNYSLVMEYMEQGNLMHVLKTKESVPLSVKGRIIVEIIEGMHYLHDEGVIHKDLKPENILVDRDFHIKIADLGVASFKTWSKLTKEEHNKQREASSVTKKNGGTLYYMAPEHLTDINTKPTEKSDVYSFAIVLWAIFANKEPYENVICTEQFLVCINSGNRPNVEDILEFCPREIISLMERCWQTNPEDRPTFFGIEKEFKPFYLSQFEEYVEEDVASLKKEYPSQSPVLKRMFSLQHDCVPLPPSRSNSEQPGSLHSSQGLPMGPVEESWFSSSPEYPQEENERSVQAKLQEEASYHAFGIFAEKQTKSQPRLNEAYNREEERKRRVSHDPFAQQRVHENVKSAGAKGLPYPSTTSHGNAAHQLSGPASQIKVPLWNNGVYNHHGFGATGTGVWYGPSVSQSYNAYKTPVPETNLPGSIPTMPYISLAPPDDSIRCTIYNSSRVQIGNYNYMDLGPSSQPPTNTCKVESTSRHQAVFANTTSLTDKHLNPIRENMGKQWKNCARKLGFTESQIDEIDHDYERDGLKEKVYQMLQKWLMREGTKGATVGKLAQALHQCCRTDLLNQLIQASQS
Experimental: as §1
(§4) Necrostatin 1 (Nec-1, Calbiochem, Sigma Aldrich, UK) was prepared as follows. Nec-1 was redissolved in N-2 methyl-pyrrolidone (NMP) to make a 200 mg/ml stock solution which was then further diluted to an intermediate concentration of 40 mg/ml in NMP. […]
(§5) Terminal deoxynucleotidyl transferase biotin-dUTP nick end labeling (TUNEL) staining of deparaffinised and proteinase K-treated liver and kidney sections was performed using the In-Situ Cell Death Detection kit, POD (Roche, UK) as per manufacturer's protocol. […] Quantitative analysis of immunohistochemistry positive area was assessed by measuring optical density using FIJI Image J software.

[1] = Rodent ACLF model (BDL+LPS rats): plasma biochemistry, histone 3 and brain water
Experimental: as §1
Necrostatin 1 (Nec-1, Calbiochem, Sigma Aldrich, UK) was prepared as follows. Nec-1 was redissolved in N-2 methyl-pyrrolidone (NMP) to make a 200 mg/ml stock solution which was then further diluted to an intermediate concentration of 40 mg/ml in NMP. The 40 mg/ml solution was finally diluted to a working concentration of 1 mg/ml in a solution of 30% (2-hydroxypropyl) β-cyclodextrin (Sigma, Cat No H107)/0.5% Citric acid.
as §2
Animals were sacrificed 3 hours after LPS.
(§6) Blood was withdrawn from the carotid line and immediately placed in heparin or EDTA-containing tubes (until full exsanguination), centrifuged (3,500 rpm for 10 min at 4° C.) and the plasma was stored at −80° C. for later use in biochemistry and RIPK3 quantification [Rat RIPK3 (Receptor-interacting serine/threonineprotein kinase) ELISA kit, Cat. No. ER0446, Wuhan Fine Biological Technology Co., Ltd., China]. Organs were harvested and either fixed in formalin for histological assessment or snap frozen.

[2] = tested on: liver and kidney sections; assay: Rodent ACLF model (BDL+LPS rats): TUNEL staining of liver and kidney sections (cell death)
Experimental: as §1, §4, §5

RIPK3 = assay: Rodent ACLF model (BDL+LPS rats): plasma RIPK3 by ELISA; conditions: BDL+NEC-1+LPS vs BDL+Vehicle+LPS
Experimental: as §1, §4
as §6, with “Organs were harvested and either fixed in formalin for histological assessment or snap frozen.” left out

Caspase 3/7 = assay: Liver Caspase 3/7 activity (Caspase-Glo) in rodent ACLF model; conditions: BDL+NEC-1+LPS group; IQR 1640-3890; p=0.626 compared to BDL
Experimental: as §1, §2, §3

SMILES: CN1C(=O)C(Cc2c[nH]c3ccccc23)NC1=S (stereo not drawn) [NEC-1, Necrostatin 1]
- Caspase 8 activity in liver homogenates, median (Caspase 8): 326.5 RLU
- expression of RIPK1 in liver (immunostaining optical density) (RIPK1): significantly decreased
- plasma urea levels ([1]; BDL+NEC-1+LPS vs BDL+Vehicle+LPS, p=0.012): significant reduction
- plasma albumin levels ([1]; BDL+NEC-1+LPS vs BDL+Vehicle+LPS, p=0.017): significantly higher
- plasma creatinine ([1]; BDL+NEC-1+LPS vs BDL+Vehicle+LPS, p=0.020): significant reduction
- plasma AST ([1]; BDL+NEC-1+LPS vs BDL+Vehicle+LPS, p=0.037): significantly lower
- brain water content ([1]; BDL+NEC-1+LPS vs BDL+Vehicle+LPS, p=0.100): reduction in brain water content, although not statistically significant
- circulating levels of histone 3 ([1]; NEC-1 treated group vs BDL+Vehicle+LPS, p=0.048): significant reduction in circulating levels of histone 3
- total cell death in the livers (TUNEL staining) ([2]; BDL+NEC-1+LPS vs BDL+Vehicle+LPS, p=0.001): significant reduction in total cell death
- cell death in kidneys (TUNEL staining) ([2]; BDL+NEC-1+LPS vs BDL+vehicle+LPS, p=0.002): significant reduction in cell death
- plasma RIPK3 levels (RIPK3): reduced markedly
- Caspase 3/7 activity in liver homogenates, median (Caspase 3/7): 2857 RLU
